Measured values taken from patent EP3421457B1, “PYRIMIDINE FGFR4 INHIBITORS” (priority 2013, dated 2015).
Read-outs that look alike come from different tables or passages of the source.

Tests used:
[1] = system: HEP3B; assay: Cellular Viability assay to obtain GI50 (CellTiter-Glo); format: cell-based; settings: Homo sapiens, 72h, FGF19 amplified line
[2] = system: JHH7; assay: as above; format: cell-based; settings: Homo sapiens; JHH7, 72h, FGF19 amplified line
[3] = system: HUH7; assay: as above; format: cell-based; settings: Homo sapiens, Huh-7; HUH7, 72h, FGF19 amplified line
[4] = system: HEPG2; assay: as above; format: cell-based; settings: Homo sapiens; HEPG2, 72h, FGF19 non-amplified
[5] = system: Hep3B cells; format: in vivo; settings: Hep3B xenograft; for efficacy (tumor volume): FIG. 4
[6] = molecular target: T1, FGFR4 (Homo sapiens, UniProt P22455); assay: IC50 Profiling of Kinase Activity Inhibition (Kinase HotSpot assay); format: biochemical; settings: Table 1
T1 construct: purchased Invitrogen

[7] = molecular target: T2, FGFR1 (Homo sapiens, UniProt P11362); assay: as above; format: biochemical; settings: Table 1
T2 construct: purchased Invitrogen
T2 sequence (P11362 22-822): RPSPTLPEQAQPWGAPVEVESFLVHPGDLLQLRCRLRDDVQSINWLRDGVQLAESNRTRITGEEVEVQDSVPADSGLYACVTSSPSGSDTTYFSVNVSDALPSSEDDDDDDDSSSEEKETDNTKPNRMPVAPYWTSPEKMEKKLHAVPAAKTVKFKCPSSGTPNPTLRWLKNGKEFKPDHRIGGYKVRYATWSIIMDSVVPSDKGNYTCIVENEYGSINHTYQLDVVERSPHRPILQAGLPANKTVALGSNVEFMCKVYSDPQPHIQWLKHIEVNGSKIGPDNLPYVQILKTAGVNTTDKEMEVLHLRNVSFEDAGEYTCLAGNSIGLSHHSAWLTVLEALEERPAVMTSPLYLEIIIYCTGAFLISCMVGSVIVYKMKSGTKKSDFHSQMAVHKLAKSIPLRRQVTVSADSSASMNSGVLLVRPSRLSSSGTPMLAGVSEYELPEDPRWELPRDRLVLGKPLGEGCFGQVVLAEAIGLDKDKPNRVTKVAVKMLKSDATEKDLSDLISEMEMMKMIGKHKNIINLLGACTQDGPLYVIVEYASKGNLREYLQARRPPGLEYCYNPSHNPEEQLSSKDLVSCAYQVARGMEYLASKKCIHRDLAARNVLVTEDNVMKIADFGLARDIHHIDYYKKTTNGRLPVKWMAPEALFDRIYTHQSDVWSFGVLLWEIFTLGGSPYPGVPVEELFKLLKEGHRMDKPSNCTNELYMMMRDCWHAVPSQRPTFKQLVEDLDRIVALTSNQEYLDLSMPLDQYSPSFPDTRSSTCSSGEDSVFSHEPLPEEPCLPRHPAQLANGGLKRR

T1 sequence (P22455 22-802): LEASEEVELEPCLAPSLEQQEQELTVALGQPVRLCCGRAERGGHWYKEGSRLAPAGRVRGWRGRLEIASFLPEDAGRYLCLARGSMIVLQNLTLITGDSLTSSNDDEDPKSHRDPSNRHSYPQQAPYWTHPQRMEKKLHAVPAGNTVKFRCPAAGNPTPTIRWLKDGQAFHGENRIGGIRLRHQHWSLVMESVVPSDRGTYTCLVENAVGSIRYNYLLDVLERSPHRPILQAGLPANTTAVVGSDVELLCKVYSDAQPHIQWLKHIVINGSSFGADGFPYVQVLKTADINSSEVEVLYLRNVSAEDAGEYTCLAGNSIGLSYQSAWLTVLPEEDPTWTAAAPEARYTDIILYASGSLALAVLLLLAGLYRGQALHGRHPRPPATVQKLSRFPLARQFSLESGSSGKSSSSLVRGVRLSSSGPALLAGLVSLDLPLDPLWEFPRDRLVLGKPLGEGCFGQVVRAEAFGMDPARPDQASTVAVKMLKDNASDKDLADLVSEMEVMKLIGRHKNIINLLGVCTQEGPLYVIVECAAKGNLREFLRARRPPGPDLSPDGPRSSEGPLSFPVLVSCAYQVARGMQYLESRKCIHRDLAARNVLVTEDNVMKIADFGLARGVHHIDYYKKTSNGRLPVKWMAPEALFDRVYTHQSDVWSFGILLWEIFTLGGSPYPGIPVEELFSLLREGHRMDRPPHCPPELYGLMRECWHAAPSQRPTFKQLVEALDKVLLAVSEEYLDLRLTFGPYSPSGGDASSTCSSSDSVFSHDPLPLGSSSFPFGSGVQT

CCN1CCN(c2ccc(Nc3cc(N(C)C(=O)Nc4c(Cl)c(OC)cc(OC)c4Cl)ncn3)cc2)CC1 [BGJ398]
GI50 [1]: 74 ± 23 nM
GI50 [2]: 178 ± 30 nM
GI50 [3]: 231 ± 100 nM
GI50 [4]: 2260 ± 1180 nM
efficacy (tumor volume) ([5]; BGJ398 at 60mg/kg): efficacy comparable to compound 108
toxicity (health of animals) ([5]; BGJ398 at 60mg/kg): terminated on Day 11 due to poor health of animals
toxicity (health of animals) ([5]; dosed orally with BGJ398 at 30mg/kg): did not exhibit poor health

C=CC(=O)Nc1ccccc1Nc1cc(N(C)C(=O)Nc2cccc(OC)c2Cl)ncn1 [Compound 103]
IC50 [6]: 673 nM
IC50 [7]: > 10000 nM

C=CC(=O)Nc1ccccc1Nc1cc(N(C)C(=O)Nc2cc(OC)cc(OC)c2Cl)ncn1 [Compound 105]
IC50 [6]: 201 nM
IC50 [7]: > 10000 nM

C=CC(=O)Nc1cc(N2CCN(CC)CC2)ccc1Nc1cc(N(C)C(=O)Nc2c(Cl)c(OC)cc(OC)c2Cl)ncn1 [Compound 108, N-(2-(6-(3-(2,6-Dichloro-3,5-dimethoxyphenyl)-1-methylureido)pyrimidin-4-ylamino)-5-(4-ethylpiperazin-1-yl)phenyl)acrylamide]
efficacy (tumor volume) ([5]; dosed for 18 days, Compound 108 versus BGJ398): more efficacious than BGJ398 at tolerable dosage levels
